Laboratory results taken from the RepoRT retention time repository (doi:10.1016/j.foodchem.2021.129757).

Tests used:
Settings in all cases: stereoisomer not certain
[1] = RP, Waters ACQUITY UPLC BEH Shield RP18, 100 × 2.1 mm, 1.7 µm, 30 °C, 0.6 mL/min, estimated dead time 0.37 min; A: water + 0.1% formic acid, pH 3; B: acetonitrile + 0.1% formic acid, pH 3; gradient (min/%B) 0/0 2/0 7/10 22/95 22.1/0 26/0
[2] = RP, Merck LiChrospher RP-18, 250 × 4 mm, 5 µm, 35 °C, 0.3 mL/min, estimated dead time 6.7 min; A: water + 0.5% formic acid; B: acetonitrile + 0.5% formic acid; gradient (min/%B) 0/5 10/5 30/15 45/20 65/20 95/54 110/63 115/5 135/5
[3] = RP, Phenomenex Synergi Hydro-RP, 150 × 2 mm, 4 µm, 30 °C, 0.5 mL/min, estimated dead time 0.6 min; A: water + 0.1% formic acid, pH 3; B: acetonitrile + 0.1% formic acid, pH 3; gradient (min/%B) 0/5 1/5 35/45 40/100 45/100
[4] = RP, Phenomenex Luna C18, 150 × 4.6 mm, 3 µm, 25 °C, 0.5 mL/min, estimated dead time 3.2 min; A: water + 0.1% formic acid, pH 3; B: acetonitrile + 0.1% formic acid, pH 3; gradient (min/%B) 0/0 30/30 35/40 50/80 52/80 60/0 65/0
[5] = RP, Waters ACQUITY UPLC HSS T3, 100 × 2.1 mm, 50 °C; A: water + 0.1% formic acid, pH 3; B: 30% methanol + 70% acetonitrile + 0.1% formic acid, pH 3; gradient (min/%B) 0/5 1/8 2/15 3/40 4/70 4.5/100 5/100 6.4/100 6.6/5 6.8/5 7/5
[6] = RP, 50 × 0.5 mm, 2.7 µm, 35 °C, 0.01 mL/min, estimated dead time 0.62 min; A: water + 0.1% formic acid, pH 3; B: acetonitrile + 0.1% formic acid, pH 3; gradient (min/%B) 0/5 12/95 14/95 16/5
[7] = RP, Phenomenex Luna Omega Polar C18, 100 × 2.1 mm, 1.6 µm, 40 °C, 0.5 mL/min, estimated dead time 0.44 min; A: water + 0.5% formic acid; B: acetonitrile + 0.5% formic acid; gradient (min/%B) 0/5 3/50 3.1/100 5/100 5.1/5 7/5
[8] = RP, 150 × 2.1 mm, 2.6 µm, 40 °C, 0.35 mL/min, estimated dead time 0.94 min; A: water + 0.1% formic acid, pH 3; B: acetonitrile + 0.1% formic acid, pH 3; gradient (min/%B) 0/0 1/0 12.5/100 14/100 14.2/0 15/0
[9] = RP, Agilent InfinityLab Poroshell 120 EC-C18, 100 × 3 mm, 2.7 µm, 25 °C, 0.4 mL/min, estimated dead time 1.1 min; A: water + 0.1% formic acid, pH 3; B: acetonitrile + 0.1% formic acid, pH 3; gradient (min/%B) 0/5 10/25 20/40 24/90 25/90 26/5 30/5
[10] = RP, Waters ACQUITY UPLC HSS T3, 100 × 2.1 mm, 1.8 µm, 30 °C, 0.4 mL/min, estimated dead time 0.55 min; A: water + 0.1% formic acid, pH 3; B: acetonitrile + 0.1% formic acid, pH 3; gradient (min/%B) 0/0 2/0 15/100 22/100 22.1/0 26/0
[11] = RP, 150 × 2.1 mm, 2.6 µm, 40 °C, 0.35 mL/min, estimated dead time 0.94 min; A: water + 0.1% formic acid, pH 3; B: acetonitrile + 0.1% formic acid, pH 3; gradient (min/%B) 0/0 1/5 7/45 8.5/80 10.5/80 11/5 12/5
[12] = RP, Phenomenex Synergi Hydro-RP, 250 × 2 mm, 4 µm, 25 °C, 0.2 mL/min, estimated dead time 2.5 min; A: water + 0.1% formic acid, pH 3; B: acetonitrile + 0.1% formic acid, pH 3; gradient (min/%B) 0/0.5 7/0.5 12/12.5 25/16.3 47/35 48/65 50/65 50.1/0.5
[13] = RP, Phenomenex Luna Omega Polar C18, 100 × 2.1 mm, 1.6 µm, 40 °C, 0.5 mL/min, estimated dead time 0.44 min; A: water + 0.1% formic acid + 10 mM ammonium formate; B: acetonitrile; gradient (min/%B) 0/5 8/20 10/100 12/100 12.1/5 14/5
[14] = RP, 100 × 0.5 mm, 2.7 µm, 45 °C, 0.015 mL/min, estimated dead time 0.83 min; A: water + 0.9% formic acid; B: acetonitrile + 0.9% formic acid; gradient (min/%B) 0/1 0.5/1 4/95 4.5/1 5/1
[15] = RP, Agilent ZORBAX Eclipse XDB-C18, 100 × 2.1 mm, 1.8 µm, 50 °C, 0.4 mL/min, estimated dead time 0.55 min; A: water + 0.1% formic acid, pH 3; B: methanol + 0.1% formic acid, pH 3; gradient (min/%B) 0/2 10/100 14.5/100 14.51/2 16.5/2
[16] = RP, Waters Atlantis T3, 100 × 2.1 mm, 3 µm, 40 °C, 0.3 mL/min, estimated dead time 0.73 min; A: water + 0.1% trifluoroacetic acid, pH 2; B: acetonitrile + 0.1% trifluoroacetic acid, pH 2; gradient (min/%B) 0/10 1/10 6/40 7/50 8/50 14/70 16/80 20/10 25/10
[17] = RP, Waters ACQUITY UPLC BEH Shield RP18, 150 × 2.1 mm, 1.7 µm, 40 °C, 0.4 mL/min, estimated dead time 0.83 min; A: water + 0.1% formic acid, pH 3; B: acetonitrile + 0.1% formic acid, pH 3; gradient (min/%B) 0/0 30/50 31/100 37/100 37.1/0
[18] = Other, Phenomenex Kinetex PFP, 100 × 4.6 mm, 5 µm, 45 °C, 0.6 mL/min, estimated dead time 1.8 min; A: water + 0.1% trifluoroacetic acid, pH 2; B: methanol; gradient (min/%B) 0/40 20/72 21/40
[19] = RP, Waters ACQUITY UPLC BEH C18, 100 × 2.1 mm, 1.7 µm, 65 °C, 0.4 mL/min, estimated dead time 0.55 min; A: water + 0.1% formic acid, pH 3; B: 80% acetonitrile + 20% acetone + 0.1% formic acid, pH 3; gradient (min/%B) 0/0 5/100 5.5/0 6/0
[20] = RP, Merck Supelco SUPELCOSIL LC-C18, 250 × 4.6 mm, 5 µm, 40 °C, 1 mL/min, estimated dead time 2.6 min; A: water + 0.1% trifluoroacetic acid, pH 2; B: acetonitrile + 0.1% trifluoroacetic acid, pH 2; gradient (min/%B) 0/5 45/35 47/75 49/35 50/5
[21] = RP, Phenomenex Kinetex EVO C18, 100 × 2.1 mm, 2.6 µm, 40 °C, 0.4 mL/min, estimated dead time 0.55 min; A: water + 0.2% formic acid; B: acetonitrile + 0.2% formic acid; gradient (min/%B) 0/5 0.5/5 7/95 8/95 8.5/5 12/5
[22] = RP, Agilent ZORBAX RRHD Eclipse Plus C18, 50 × 2.1 mm, 1.8 µm, 30 °C, 0.4 mL/min, estimated dead time 0.28 min; A: water + 0.1% formic acid, pH 3; B: acetonitrile + 0.1% formic acid, pH 3; gradient (min/%B) 0/1 5/10 8/25 9.1/99 10/99 12/1
[23] = RP, Agilent ZORBAX RRHD Eclipse Plus C18, 50 × 2.1 mm, 1.8 µm, 30 °C, 0.4 mL/min, estimated dead time 0.28 min; A: water + 0.1% formic acid, pH 3; B: acetonitrile + 0.1% formic acid, pH 3; gradient (min/%B) 0/1 5/10 8/25 9.1/99 10/99 12/99

Row | LC retention time [1] [min] | LC retention time [2] [min] | LC retention time [3] [min] | LC retention time [4] [min] | LC retention time [5] [min] | LC retention time [6] [min] | LC retention time [7] [min] | LC retention time [9] [min] | LC retention time [10] [min] | LC retention time [13] [min] | LC retention time [14] [min] | LC retention time [15] [min] | LC retention time [16] [min] | LC retention time [17] [min] | LC retention time [18] [min] | LC retention time [19] [min] | LC retention time [20] [min] | SMILES | also measured
1 | 15.3 | 91.1 | 22.6 | 42.1 | 3.75 | 5.79 | 3.57 | 17.1 | 10.8 | 9.48 | 2.97 | 6.42 | 9.3 | 20.2 | 18.6 |  |  | O=c1cc(-c2ccc(O)c(O)c2)oc2cc(O)cc(O)c12 [Luteolin] | LC retention time [8]: 7.14 min; LC retention time [11]: 7.52 min; LC retention time [12]: 47 min
2 |  |  |  |  |  |  | 3.17 | 5.63 |  |  | 3.19 | 3.52 |  |  | 10.8 |  | 29.1 | Oc1cc(O)c2cc(O)c(-c3ccc(O)c(O)c3)[o+]c2c1 [Cyanidin] | 
3 | 19.4 |  | 20.2 | 46.2 |  |  | 2.93 | 12.6 | 10.5 | 9.25 | 2.82 | 5.84 |  | 25.5 | 14.7 |  |  | O=c1c(OS(=O)(=O)O)c(-c2ccc(O)c(O)c2)oc2cc(O)cc(O)c12 [Quercetin 3-O-sulfate] | LC retention time [21]: 6.76 min; LC retention time [22]: 7.73 min; LC retention time [23]: 8.12 min
4 | 16.6 | 97.6 | 26.7 | 37.7 | 3.88 | 6.31 | 3.7 | 14.1 | 11.6 | 9.66 | 3.2 | 6.86 | 10.2 | 24.5 |  | 3.02 | 43.8 | O=c1c(O)c(-c2ccc(O)cc2)oc2cc(O)cc(O)c12 [Kaempferol] | LC retention time [22]: 9.16 min; LC retention time [23]: 9.29 min; LC retention time [12]: 52.3 min

Continued, molecule first:

Row | SMILES | LC retention time [1] [min] | LC retention time [2] [min] | LC retention time [3] [min] | LC retention time [4] [min] | LC retention time [5] [min] | LC retention time [6] [min] | LC retention time [7] [min] | LC retention time [9] [min] | LC retention time [10] [min] | LC retention time [13] [min] | LC retention time [14] [min] | LC retention time [15] [min] | LC retention time [16] [min] | LC retention time [17] [min] | LC retention time [18] [min] | LC retention time [19] [min] | LC retention time [20] [min] | also measured
5 | O=c1c(-c2ccc(O)cc2)coc2cc(O)cc(O)c12 [Genistein] | 16.1 |  | 25.7 | 41.5 |  | 6.06 | 3.49 | 16.5 | 11.5 | 9.62 | 3.17 | 6.56 |  | 22.9 | 18 | 2.84 |  | LC retention time [8]: 7.65 min; LC retention time [11]: 8.03 min
6 | COc1cc(C=O)ccc1O [Vanillin] | 10.1 | 54.7 |  | 21.1 | 3.46 | 3.51 | 2.44 | 8.04 | 9.32 | 5.38 | 2.71 | 4.06 |  | 7.83 | 6.9 | 2.03 |  | 
7 | CC1OC(OC2C(Oc3cc(O)c4c(c3)OC(c3ccc(O)cc3)CC4=O)OC(CO)C(O)C2O)C(O)C(O)C1O (stereo unspecified) [Naringin] | 13 |  | 17.3 | 26.7 |  | 4.65 |  | 10.6 | 9.46 | 8.96 | 2.56 | 5.22 | 7.79 | 13 | 9.02 |  |  | 
8 | O=c1c(O)c(-c2ccc(OS(=O)(=O)O)c(O)c2)oc2cc(O)cc(O)c12 [Quercetin 4-O-sulfate] | 19.5 |  | 20.7 | 47.6 |  |  | 2.93 | 12.9 | 10.6 | 9.3 | 2.82 |  |  |  | 14.9 |  |  | 
9 | Oc1cc(O)c2c(c1)OC(c1ccc(O)c(O)c1)C(O)C2 (single isomer, unassigned; (-)) [(-)-Epicatechin] | 11.5 |  | 11.3 | 15.9 |  | 3.43 | 1.99 |  |  | 4.95 | 2.32 | 3.7 |  |  |  |  | 16.8 | 
